Patent US20240309018A1, “THIAZOLE-LACTAM-SPIROHETEROCYCLIC COMPOUNDS AND APPLICATIONS THEREOF” (D3 BIO (WUXI) CO., LTD, priority 2021, published 2024)
In brackets after ≈: the same amount, converted by molar mass. Like-named read-outs stand apart in the source and are kept apart here.

Assay: Solubility study (HPLC-UV, phosphate buffers)
Type: physicochemical
Conditions: 25 °C, aqueous buffer, kinetic from dmso stock, 25±2° C., 2% DMSO, theoretical maximum 200 μM
Procedure: The solubility of the compound was determined to evaluate the solubility property of the compound.
• 1) Buffer A (pH 2.0): 50 mM phosphate buffer, pH 2.0; Buffer B (pH 6.5): 50 mM phosphate buffer, pH 6.5: Buffer C (pH 7.4): 50 mM phosphate buffer, pH 7.4; • 2) Preparation of standard solution: • a) 50% acetonitrile solution and 50% buffer solution were mixed to obtain a diluent; • b) 10 mM (10 μL/compound) compound stock solution was added to the diluent (490 μL/compound) to obtain 200 μM detection standard solution; • c) The 200 μM UV detection standard solution was diluted with 10-fold and 200-fold volume of diluents to obtain 20 μM and 1 μM UV standard solutions, respectively; • d) UV standard solutions of 1 μM, 20 µM, and 200 μM were used as standard solutions for solubility assays.
• 1) The compound was dissolved in DMSO to prepare a 10 mM stock solution. […] The pH of the corresponding solubility solutions was 2.0, 6.5 and 7.4, respectively. The theoretical maximum concentration of the assay compound is 200 μM with 2% DMSO; • 3) The plate was shaken in a shaker at room temperature (25±2° C.) at 600 rpm for 24 hours; • 4) 200 μL of the solution was pipetted from the 96-well plate, filtered with suction by a vacuum suction filtration device, and transferred into a new 96-well plate as an assay sample; • 5) The compound concentration was determined using HPLC-UV.
• 6) Three UV standard solutions from low concentration to high concentration (1 μM, 20 μM, 200 μM) were injected into HPLC, and then the assay sample of the compound to be assayed was injected; • 7) The UV chromatographic peaks were integrated, and the solubility of the sample was calculated.

SMILES: Cc1cccc(CN2C(=O)c3nc(-c4nc(Nc5ccnn5C)ncc4C)sc3C23COC3)n1 [WX001]
- solubility at 24 h (50 mM phosphate buffer pH 2.0, 24 hours, read-out: Solubility at pH = 2.0): 200 µM (≈ 94.7 µg/mL)
- solubility at 24 h (50 mM phosphate buffer pH 6.5, 24 hours, read-out: Solubility at pH = 6.5): 2.94 µM (≈ 1.4 µg/mL)
- solubility at 24 h (50 mM phosphate buffer pH 7.4, 24 hours, read-out: Solubility at pH = 7.4): 2.64 µM (≈ 1.25 µg/mL)
